Results taken from the NIST ThermoML archive (doi:10.1021/je500917k).
± gives the expanded uncertainty stated by the source.

Legend:
[1] = 100 kPa, Liquid; for speed of sound: Frequency=2 MHz
[2] = xn = mol fraction of the nth substance listed; conditions: 100 kPa, Liquid; for speed of sound: Frequency=2 MHz

CCN1CCCC1=O [1-ethyl-2-pyrrolidinone]
[1]
Conditions | mass density [kg/m3] | speed of sound [m/s] | viscosity [mPa·s]
293.15 K | 997.71 ± 0.94 | 1512.1 ± 3.4 | 2.117 ± 0.053
303.15 K | 989.14 ± 0.94 | 1474.2 ± 3.4 | 1.771 ± 0.045
313.15 K | 980.56 ± 0.94 | 1436 ± 3.4 | 1.518 ± 0.039
323.15 K | 971.96 ± 0.94 | 1398.5 ± 3.4 | 1.299 ± 0.034

CCN1CCCC1=O [1-ethyl-2-pyrrolidinone] + CCNCCO
[2], x1 = 1
Conditions | mass density [kg/m3] | speed of sound [m/s] | viscosity [mPa·s]
293.15 K | 997.71 ± 0.94 | 1512.1 ± 3.4 | 2.117 ± 0.053
303.15 K | 989.14 ± 0.94 | 1474.2 ± 3.4 | 1.771 ± 0.045
313.15 K | 980.56 ± 0.94 | 1436 ± 3.4 | 1.518 ± 0.039
323.15 K | 971.96 ± 0.94 | 1398.5 ± 3.4 | 1.299 ± 0.034

CCNCCO [2-(ethylamino)ethanol]
[1]
Conditions | mass density [kg/m3] | speed of sound [m/s] | viscosity [mPa·s]
293.15 K | 917.79 ± 0.55 | 1442.4 ± 2.9 | 15.28 ± 0.28
303.15 K | 909.82 ± 0.56 | 1408.3 ± 2.9 | 9.59 ± 0.19
313.15 K | 901.79 ± 0.57 | 1374.5 ± 2.9 | 6.406 ± 0.13
323.15 K | 893.68 ± 0.57 | 1340.9 ± 2.9 | 4.527 ± 0.1

CNCCO [2-(methylamino)ethanol]
[1]
Conditions | mass density [kg/m3] | speed of sound [m/s] | viscosity [mPa·s]
293.15 K | 941.79 ± 0.54 | 1486.5 ± 2.9 | 13.42 ± 0.25
303.15 K | 934.02 ± 0.54 | 1454.6 ± 2.9 | 8.58 ± 0.17
313.15 K | 926.18 ± 0.55 | 1422.7 ± 2.9 | 5.869 ± 0.12
323.15 K | 918.25 ± 0.55 | 1390.9 ± 2.9 | 4.096 ± 0.092

CNCCO [2-(methylamino)ethanol] + CCN1CCCC1=O
[2], x2 = 0
Conditions | mass density [kg/m3] | speed of sound [m/s] | viscosity [mPa·s]
293.15 K | 941.79 ± 0.54 | 1486.5 ± 2.9 | 13.42 ± 0.25
303.15 K | 934.02 ± 0.54 | 1454.6 ± 2.9 | 8.58 ± 0.17
313.15 K | 926.18 ± 0.55 | 1422.7 ± 2.9 | 5.869 ± 0.12
323.15 K | 918.25 ± 0.55 | 1390.9 ± 2.9 | 4.096 ± 0.092
